# Assay results: PMC8328489, “Automated Synthesis and Initial Evaluation of (4′-Amino-5′,8′-difluoro-1′H-spiro[piperidine-4,2′-quinazolin]-1-yl)(4-[^18F]fluorophenyl)methanone for PET/MR Imaging of Inducible Nitric Oxide Synthase” (Molecular Imaging, 2021)
# Tests used:
# [1] = Radiolabeled metabolites in blood plasma (radio-HPLC); type: in vivo, Sprague-Dawley rats; settings: rat, i.v.
# Description: Adult Sprague-Dawley rats (n = 3) were anesthetized with 2% isoflurane (in oxygen) and injected with 194.87 MBq ± 22.61 MBq of [^18F]FBAT in the tail vein. Plasma was extracted from heparinized blood samples (0.25 mL) with 3x volumes of acetonitrile and analyzed with radio-HPLC; mobile phase: 40% MeCN/0.10% TEA in water at 1 mL/min. This method affords retention time of [^18F]FBAT which was 18.1–18.9 min. Fractions of [^18F]FBAT and metabolites were calculated for each sample based on the area under each peak. The radioactivity concentration in the whole blood and plasma was assayed using a gamma counter (Cobra, Packard, CT).
# [2] = Whole-body dynamic PET/MR biodistribution and blood clearance; type: in vivo, C57BL/6 mice
# Description: Mice (n = 30) were anesthetized with 2% isoflurane (in oxygen) and injected with [^18F]FBAT (11.1 MBq; 0.3 mCi) via the tail vein. Dynamic PET images were obtained in fully three-dimensional list mode for 30 min using a small animal SuperArgus 2r PET system (SEDECAL, Madrid, Spain) or 7T PETMR Inline (Bruker, Rheinstetten, Germany; energy window, 350-650 keV; timing window, 6 ns). Images were acquired every 10 s for 12 images, 60 s for three images, 300 s for three images, or 600 s for […]. The anatomical structure of the brain was imaged using T2 MRI. The MRI sequences included 0.5 mm thick T2 Turbo RARE high-resolution images (TR = 3000 ms, TE, 46 ms, matrix, 512 × 256, average, 40, slice number, 30, field of view, 20 × 10 mm).
# Images were reconstructed by the Fourier rebinning algorithm and two-dimensional filtered back projection using a ramp filter with a cutoff at Nyquist. The regional radioactivity concentration (kBq/cc) of [^18F]FBAT was estimated from the mean pixel values within the region of interest (ROI) corresponding to MR images of various organs and regions of the brain. ROI for carotid artery, heart muscle, lung, liver, spleen, and kidney were defined and time activity curves (TACs) generated. TACs for whole brain, cortex, cerebellum, and brainstem were also determined as described above.
# The concentration of radioactivity (kBq/cc, μCi/cc) was converted to standardized uptake value (SUV), and the mean and standard deviation (SD) of radiotracer accumulation values were calculated for different organs and regions of the brain. Data were analyzed with PMOD 4.0 software (PMOD Technologies Ltd., Zurich, Switzerland).
# [3] = target: T1, iNOS (Mus musculus, UniProt P29477); experiment: Logan graphical analysis of dynamic PET (Vt); type: in vivo, C57BL/6 mice
# T1 construct: tracer to detect iNOS expression in mice injected with lipopolysaccharide (LPS) to induce brain inflammation; from tissue; host or cells: brain of living C57BL/6 mice (LPS-induced); fixed brain sections for IHC
# Description: The dynamic PET imaging data were analyzed using Logan's model-independent graphical analysis to assess whether [^18F]FBAT PET/MR could be used to detect differences in expression of iNOS in brain regions (Cbra(t)). Cardiac blood TACs (Cref(t)) were used as the reference tissue. The slope of the linear portion of the Logan plot represents the total distribution (Vt). Then, the slope of the linear portion of the plot can be calculated using (1) ∫0tCreferencetdt/CreferenceT=DVR∫0tCbrain regiontdt/CreferenceT+C.
smiles,measurement,setting,value
"NC1=NC2(CCN(C(=O)c3ccc([18F])cc3)CC2)Nc2c(F)ccc(F)c21 [[^18F]FBAT, (4′-amino-5′,8′-difluoro-1′H-spiro[piperidine-4,2′-quinazolin]-1-yl)(4-[^18F]fluorophenyl)methanone]",metabolites fraction in plasma,[1]; 120 min after injection,~94.02%
same,parent compound fraction in plasma,[1]; first 5 minutes,77.98%
same,level of [^18F]FBAT in blood (carotid ROI),"[2]; 30 min post i.v. injection, brain imaging study",0.30 ± 0.06 SUV
same,radioactivity remaining in the blood pool,"[2]; 30 min postinjection, whole-body biodistribution study",0.298 ± 0.019 SUV
same,time of peak radioactivity in heart muscle,[2]; after injection,≤ 1 min
same,"blood clearance half-life, first phase (biexponential)","[2]; carotid, i.v.",1.05 ± 0.58 min
same,"blood clearance half-life, second phase (biexponential)","[2]; carotid, i.v.",24.9 ± 7.46 min
same,time of peak accumulation in the lungs,[2]; postinjection,1 to 2 min
same,accumulation of radioactivity in skeletal structures,[2]; up to 30 min postinjection,No accumulation
same,"volume distribution Vt, brainstem",[3]; LPS 3 h,0.435 ± 0.040^∗ mL/cm^3
same,"volume distribution Vt, cerebellum",[3]; LPS 3 h,0.385 ± 0.016^∗∗ mL/cm^3
same,"volume distribution Vt, cortex",[3]; LPS 3 h,0.391 ± 0.020^∗ mL/cm^3
same,"volume distribution Vt, whole brain",[3]; LPS 3 h,0.404 ± 0.003 mL/cm^3
same,"volume distribution Vt, brainstem",[3]; LPS 3 h + AMG,0.223 ± 0.036 mL/cm^3
same,"volume distribution Vt, cerebellum",[3]; LPS 3 h + AMG,0.250 ± 0.055 mL/cm^3
same,"volume distribution Vt, cortex",[3]; LPS 3 h + AMG,0.222 ± 0.024 mL/cm^3
same,"volume distribution Vt, whole brain",[3]; LPS 3 h + AMG,0.203 ± 0.032 mL/cm^3
same,"volume distribution Vt, brainstem",[3]; LPS 24 h,0.315 ± 0.065 mL/cm^3
same,"volume distribution Vt, cerebellum",[3]; LPS 24 h,0.288 ± 0.090 mL/cm^3
same,"volume distribution Vt, cortex",[3]; LPS 24 h,0.264 ± 0.036^∗ mL/cm^3
same,"volume distribution Vt, whole brain",[3]; LPS 24 h,0.274 ± 0.068 mL/cm^3
same,average volume distribution Vt in brain regions,"[3]; LPS group (implied), blood as reference tissue",0.40 ± 0.02 mL/cm^3
same,Vt in the brain regions,[3]; control animals,0.29 ± 0.05 mL/cm^3
same,"volume distribution Vt, brainstem",[3]; control mice,0.295 ± 0.026 mL/cm^3
same,"volume distribution Vt, cerebellum",[3]; control mice,0.227 ± 0.001 mL/cm^3
same,"volume distribution Vt, cortex",[3]; control mice,0.278 ± 0.006 mL/cm^3
same,"volume distribution Vt, whole brain",[3]; control mice,0.346 ± 0.012 mL/cm^3
same,"Vt, 3 h LPS group vs control group","[3]; whole brain, average",1.4 ± 0.22 fold
